Data from patent US10494355B2, “Oxadiazole amine derivative compounds as histone deacetylase 6 inhibitor, and the pharmaceutical composition comprising the same” (Chong Kun Dang Pharmaceutical Corp., priority 2015, dated 2019).
pIC50: −log10 of the molar value.

Assays:
[1] = target: T1, human recombinant HDAC6 (Homo sapiens, UniProt Q9UBN7); assay: HDAC6 enzyme activity inhibition assay (HDAC Fluorimetric Drug Discovery Kit); type: biochemical; conditions: 30° C. 60 minutes
T1 construct: purchased Calbiochem 382180
T1 sequence (Q9UBN7 1-1215): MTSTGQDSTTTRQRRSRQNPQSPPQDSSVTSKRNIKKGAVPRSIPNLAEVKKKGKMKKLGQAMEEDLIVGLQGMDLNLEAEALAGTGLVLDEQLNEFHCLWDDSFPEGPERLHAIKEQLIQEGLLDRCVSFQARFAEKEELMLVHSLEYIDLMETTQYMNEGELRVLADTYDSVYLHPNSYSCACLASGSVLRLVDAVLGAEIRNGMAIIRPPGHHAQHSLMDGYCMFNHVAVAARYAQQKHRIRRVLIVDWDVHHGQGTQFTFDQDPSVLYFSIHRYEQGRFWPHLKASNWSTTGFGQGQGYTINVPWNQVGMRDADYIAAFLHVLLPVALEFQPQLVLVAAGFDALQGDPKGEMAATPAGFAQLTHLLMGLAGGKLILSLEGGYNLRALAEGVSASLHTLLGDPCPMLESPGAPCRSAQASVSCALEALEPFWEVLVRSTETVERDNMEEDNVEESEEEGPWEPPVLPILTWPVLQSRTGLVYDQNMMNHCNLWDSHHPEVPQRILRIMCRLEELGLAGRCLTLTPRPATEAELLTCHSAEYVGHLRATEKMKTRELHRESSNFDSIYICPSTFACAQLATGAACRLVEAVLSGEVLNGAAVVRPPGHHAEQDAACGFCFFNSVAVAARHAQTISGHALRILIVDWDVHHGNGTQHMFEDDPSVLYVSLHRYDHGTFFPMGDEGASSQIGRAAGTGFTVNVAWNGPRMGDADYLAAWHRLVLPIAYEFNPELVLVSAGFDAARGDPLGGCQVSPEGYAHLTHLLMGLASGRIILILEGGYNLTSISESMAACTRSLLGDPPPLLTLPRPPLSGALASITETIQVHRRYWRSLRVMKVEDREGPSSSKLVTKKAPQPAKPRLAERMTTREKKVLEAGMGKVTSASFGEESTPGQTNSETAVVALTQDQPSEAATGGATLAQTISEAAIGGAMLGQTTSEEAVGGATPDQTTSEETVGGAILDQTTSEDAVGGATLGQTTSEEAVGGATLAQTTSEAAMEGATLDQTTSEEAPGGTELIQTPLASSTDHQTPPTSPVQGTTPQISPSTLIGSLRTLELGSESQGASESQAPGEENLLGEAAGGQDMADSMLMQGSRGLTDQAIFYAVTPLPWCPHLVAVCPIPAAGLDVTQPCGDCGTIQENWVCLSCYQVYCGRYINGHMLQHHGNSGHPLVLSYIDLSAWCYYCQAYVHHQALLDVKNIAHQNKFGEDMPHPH
Procedure: (§1) In order to examine the HDAC6 selectivity of the compounds of formula I of the present invention by HDAC1 and HDAC6 enzymatic activity inhibition assays, an experiment was performed using a conventional substance as a control.
(§2) HDAC enzyme activity was measured using a HDAC Fluorimetric Drug Discovery Kit (BML-AK511, 516, Enzo Life Science). For the HDAC1 enzyme activity test, human recombinant HDAC1 (BML-SE456) was used as an enzyme source, and Fluor de Lys®-“SIRT1 (BNL-KI177) was used as a substrate. A 5-fold dilution of the compound was seeded into a 96-well plate, and then 0.3 μg of the enzyme and 10 μM of the substrate were added to each well of the plate and allowed to react at 30° C. for 60 minutes. Then, Fluor de Lys®-Developer II (BML-KI176) was added thereto and allowed to react for 30 minutes, after which the fluorescence value (Ex 360, Em 460) was measured using a multi-plate reader (Flexstation 3, Molecular Device). The HDAC6 enzyme was tested using human recombinant HDAC6 (382180) (Calbiochem) according to the same protocol as the HDAC1 enzyme activity test method. Based on the resulting values, each IC50 value was calculated using GraphPad Prism4.0 program.

[2] = target: T2, human recombinant HDAC1 (Homo sapiens, UniProt Q13547); assay: HDAC1 enzyme activity inhibition assay (HDAC Fluorimetric Drug Discovery Kit); type: biochemical; conditions: human recombinant HDAC1, 10 μM substrate, 30° C. 60 minutes
T2 construct: purchased Enzo Life Science BML-SE456
T2 sequence (Q13547 whole entry): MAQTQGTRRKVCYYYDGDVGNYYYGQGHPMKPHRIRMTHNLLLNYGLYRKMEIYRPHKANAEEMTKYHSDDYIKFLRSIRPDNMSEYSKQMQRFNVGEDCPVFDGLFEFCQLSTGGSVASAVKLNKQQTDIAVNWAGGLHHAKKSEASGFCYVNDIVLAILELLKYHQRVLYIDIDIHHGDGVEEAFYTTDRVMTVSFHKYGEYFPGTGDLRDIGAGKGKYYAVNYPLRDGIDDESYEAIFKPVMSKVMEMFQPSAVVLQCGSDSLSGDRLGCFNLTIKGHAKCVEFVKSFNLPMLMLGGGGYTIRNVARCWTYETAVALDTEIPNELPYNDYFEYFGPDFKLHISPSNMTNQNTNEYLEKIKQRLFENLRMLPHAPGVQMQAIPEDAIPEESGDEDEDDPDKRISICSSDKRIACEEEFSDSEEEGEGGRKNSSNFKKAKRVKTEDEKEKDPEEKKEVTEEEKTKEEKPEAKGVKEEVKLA
Procedure: as §1, §2

pIC50 [1] | pIC50 [2] | Structure (SMILES)
7.21 | < 5.00 | Fc1ccc(C2(Nc3ncc(-c4nnc(C(F)F)o4)cn3)CCC2)cc1F [Compound 2045, 5-(5-(difluoromethyl)-1,3,4-oxadiazol-2-yl)-N-(1-(3,4-difluorophenyl)cyclobutyl)pyrimidin-2-amine]
6.81 | < 5.00 | Fc1cccc(C2(Nc3ncc(-c4nnc(C(F)(F)F)o4)cn3)CCC2)c1 [Compound 1608, N-(1-(3-fluorophenyl)cyclobutyl)-5-(5-(trifluoromethyl)-1,3,4-oxadiazol-2-yl)pyrimidin-2-amine]
6.76 | < 5.00 | FC(F)c1nnc(-c2cnc(NC3(c4ccccc4C(F)(F)F)CCC3)nc2)o1 [Compound 2042, 5-(5-(difluoromethyl)-1,3,4-oxadiazol-2-yl)-N-(1-(2-(trifluoromethyl)phenyl)cyclobutyl)pyrimidin-2-amine]
6.92 | < 5.00 | FC(F)c1nnc(-c2cnc(NC3(c4ccc(Cl)c(Cl)c4)CCC3)nc2)o1 [Compound 1834, N-(1-(3,4-dichlorophenyl)cyclobutyl)-5-(5-(difluoromethyl)-1,3,4-oxadiazol-2-yl)pyrimidin-2-amine]
6.38 | < 5.00 | Fc1ccc(C2(Nc3ncc(-c4nnc(C(F)(F)F)o4)cn3)CC2)cc1F [Compound 1780, N-(1-(3,4-difluorophenyl)cyclopropyl)-5-(5-(trifluoromethyl)-1,3,4-oxadiazol-2-yl)pyrimidin-2-amine]
7.49 | < 5.00 | Fc1cccc(C2(Nc3ncc(-c4nnc(C(F)F)o4)cn3)CCC2)c1 [Compound 1607, 5-(5-(difluoromethyl)-1,3,4-oxadiazol-2-yl)-N-(1-(3-fluorophenyl)cyclobutyl)pyrimidin-2-amine]
7.15 | < 5.00 | Fc1c(Cl)cccc1C1(Nc2ncc(-c3nnc(C(F)F)o3)cn2)CCC1 [Compound 1965, N-(1-(3-chloro-2-fluorophenyl)cyclobutyl)-5-(5-(difluoromethyl)-1,3,4-oxadiazol-2-yl)pyrimidin-2-amine]
7.59 | < 5.00 | Fc1ccc(C2(Nc3ncc(-c4nnc(C(F)F)o4)cn3)CC2)cc1 [Compound 1711, 5-(5-(difluoromethyl)-1,3,4-oxadiazol-2-yl)-N-(1-(4-fluorophenyl)cyclopropyl)pyrimidin-2-amine]
6.87 | < 5.00 | FC(F)c1nnc(-c2cnc(NC3(c4ccccc4)CCCCC3)nc2)o1 [Compound 1581, 5-(5-(difluoromethyl)-1,3,4-oxadiazol-2-yl)-N-(1-phenylcyclohexyl)pyrimidin-2-amine]
7.40 | < 5.00 | FC(F)c1nnc(-c2cnc(NC3(c4cccnc4)CCC3)nc2)o1 [Compound 1913, 5-(5-(difluoromethyl)-1,3,4-oxadiazol-2-yl)-N-(1-(pyridin-3-yl)cyclobutyl)pyrimidin-2-amine]
6.44 | < 5.00 | CN1CCC(c2ccc(C3(Nc4ncc(-c5nnc(C(F)F)o5)cn4)CCC3)cc2)CC1 [Compound 2035, 5-(5-(difluoromethyl)-1,3,4-oxadiazol-2-yl)-N-(1-(4-(1-methylpiperidin-4-yl)phenyl)cyclobutyl)pyrimidin-2-amine]
7.49 | < 5.00 | COc1ccccc1C1(Nc2ncc(-c3nnc(C(F)F)o3)cn2)CC1 [Compound 2047, 5-(5-(difluoromethyl)-1,3,4-oxadiazol-2-yl)-N-(1-(2-methoxyphenyl)cyclopropyl)pyrimidin-2-amine]
6.82 | < 5.00 | Fc1ccccc1C1(Nc2ncc(-c3nnc(C(F)(F)F)o3)cn2)CCC1 [Compound 1610, N-(1-(2-fluorophenyl)cyclobutyl)-5-(5-(trifluoromethyl)-1,3,4-oxadiazol-2-yl)pyrimidin-2-amine]
6.57 | < 5.00 | O=C(OCc1ccccc1)N1CCC(Nc2ncc(-c3nnc(C(F)F)o3)cn2)(c2ccccc2)CC1 [Compound 1677, Benzyl 4-((5-(5-(difluoromethyl)-1,3,4-oxadiazol-2-yl)pyrimidin-2-yl)amino)-4-phenylpiperidine-1-carboxylate]
